Drawing on PubChem BioAssay AID540258 (Broad Institute, 2011), this text covers AC40 for 43 compounds.

The source made the active and inactive calls.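 How the source made its calls: active means fitted curve reaching 40% activation at or below the top valid dose tested; inconclusive means flat curve at 30 to 70% activation, or poor fit; inactive means the rest.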

For the experiment, the system named is SK-MEL-5 TRPM1 promoter luciferase reporter, 24 h. The experiment can be described thus: MITF activators via TRPM1 promoter reporter, dose response, SK-MEL-5 cells, luciferase, cherry-pick samples (AID 540258).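 Further: potency for activators that raise TRPM1 promoter luciferase signal.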
As for `C1=C(c2cc3ccccc3cn2)CCCC1`, the AC40 was 1.08 µM.

Take `Cc1ccc(C(=O)Cn2nnc3ccccc32)cc1C`: the AC40 was 0.858 µM.

As for `Oc1nc(Nc2ccccc2)sc1/C=C1\C=Nc2ccccc21`, the AC40 was 9.81 µM.

With `COC(=O)c1ccc(/C=N/Nc2nc(C)c(C)s2)cc1`, the AC40 is 1.5 µM.

In the case of `CN(C)c1ccnc2sc3c(SCc4ccc(Cl)cc4)ncnc3c12`, the AC40 was 4.29 µM.

In the case of `CC(C)c1ccc(/C=N/NC(=O)C2CCCC2)cc1`, the AC40 was 2.44 µM.

As to `CCCN(CCC)c1ncnc2c1cnn2-c1ccc(OC)cc1`, the AC40 was 0.256 µM.

For `N/C(=N\OC(=O)c1ccc2c(c1)OCO2)c1ccc(Cl)cc1`, the AC40 is 5.31 µM.

For the compound `CC(C)CNC(=O)C1CCN(Cc2ccc(OCc3ccccc3)cc2)CC1`, the AC40 was 20.6 µM.

Take `Clc1ccc(-c2nc(C3CCCCC3)no2)cc1`: the AC40 was 1.23 µM.

Turning to `O=C(Nc1ccc(O)cc1)c1c(O)c2c([nH]c1=O)CCCC2`, the AC40 is 0.664 µM.

In the case of `COc1cccc(-c2cc(C(=O)Nc3ccccc3SC)no2)c1`, the AC40 is > 35 µM (inactive).

As for `COC(=O)C1CCc2c(ccc3c2CCCC3)C1=O` (stereo not drawn), the AC40 is 2.03 µM.

In the case of `COc1ccc2c(c1)CC/C2=N\OC(=O)c1ccccc1C`, the AC40 is 1.27 µM.

On to `C=CCNC(=O)c1ccc2nc(Cc3ccc(OC)cc3)oc2c1`, for which the AC40 is 2.37 µM.

As for `Clc1cnc(N/N=C/c2cccs2)c(Cl)c1`, the AC40 was 3.62 µM.

As to `O=C(NCCC1=CCCCC1)c1ccc(-n2cncn2)cc1`, the AC40 was 5.08 µM.

Regarding `CC(=O)Nc1c(-c2ccc3ccccc3c2)nc2ccccn12`, the AC40 is 9.16 µM.

As to `COc1ccc(C(=O)Nc2ccc3c4c(cccc24)CC3)cc1`, the AC40 was 13.3 µM.

Consider `c1ccc(-c2nc(-c3nccc4ccccc34)oc2-c2ccccc2)cc1`, for which the AC40 is 3.61 µM.

With `CC(C)(C)C(=O)c1cnc(Nc2ccccc2Cl)s1`, the AC40 was 0.832 µM.

Consider `CN(/N=C/c1ccc2c(c1)OCO2)c1ccccc1`, for which the AC40 is 1.34 µM.

Turning to `Cc1cnc(NC(=O)Nc2ccc(Cl)cc2)s1`, the AC40 is 1.38 µM.

On to `Cc1ccc(NC(=O)c2sc3nc(C)cc(C)c3c2N)cc1`, for which the AC40 is 0.205 µM.

On to `C/C(=N\Nc1ccc(C(=O)O)cc1)c1ccc2c(c1)Nc1ccccc1S2`, for which the AC40 was 12.8 µM.

For `COC(=O)c1ccc(N2CCN(c3ccccc3)CC2)nc1`, the AC40 is 3.85 µM.

Turning to `FC(F)(F)c1cnc(-c2cnc(-c3cccnc3)nc2)c(Cl)c1`, the AC40 was 3.02 µM.

For the compound `O=Cc1ccc(OCc2ccc3ccccc3c2)cc1`, the AC40 was 1.4 µM.

For `COc1ccc(-c2nnc(-c3ccc4ccccc4c3)o2)cc1`, the AC40 was 4.3 µM.

For `O=C(Cc1ccccc1)Nc1nc(-c2cccs2)cs1`, the AC40 was 14.7 µM.

As for `Cc1nn2c(-c3ccccc3)ccnc2c1-c1ccccc1`, the AC40 was 4.34 µM.

Regarding `Cn1c2ccccc2c(=O)c2ccc(-c3ccc4c(c3)OCO4)cc21`, the AC40 is 0.851 µM.

Turning to `Cc1ccc(NCCC(=O)c2cccs2)cc1C`, the AC40 is 6.77 µM.

In the case of `Cc1ccc(NC(=O)CC(=O)c2ccccc2)cc1C`, the AC40 is 3.33 µM.

Turning to `Cc1ccn(-c2cccc(-n3ccc(C)n3)n2)n1`, the AC40 is 0.834 µM.

As to `O=C(Nc1ccc(Br)cc1F)c1ccc2nsnc2c1`, the AC40 is 1.31 µM.

Consider `C/C(=N\Nc1ccccn1)c1ccc(C(C)C)cc1`, for which the AC40 was 4.34 µM.

`COc1ccc(Oc2ncnc3sccc23)cc1`: the AC40 is 6.05 µM.

Take `CC1CCc2sc(C(=O)Nc3ccc(C(N)=O)cc3)cc2C1` (stereo not drawn): the AC40 is 15.4 µM.

`C/C(=N/OCc1ccc(Br)cc1)c1ccccn1`: the AC40 was 0.336 µM.

As for `Cc1cccnc1NC(=O)Nc1cccc(Cl)c1`, the AC40 is 2.56 µM.

In the case of `O=C(Nc1ccc(-c2nc3cccnc3s2)cc1)c1ccc(Cl)nc1`, the AC40 was 2.11 µM.

Consider `COc1ccccc1NC(=O)Nc1ccc(C(=O)N2CCCCC2)cc1`, for which the AC40 was 16.6 µM.
